Results as given in patent US20220299500A1, “NDUFS2 SUBUNIT KNOCKOUT HUMAN CELL LINE” (priority 2019, published 2022).
“Also recorded” adds a separate entry of the source.

Key:
Assay type in all cases: cell-based, human
[1] = test system: permeabilized mutant HEK293ΔNDUFS2 cells; test: Oxygen consumption of permeabilized mutant cells, Oroboros O2k respirometry
Experimental: Mitochondrial respiration measurements with Oroboros O2K respirometry. Oxygen consumption rate (OCR) of strains was determined using protocols described elsewhere (Alleman R J, et al. Am J Physiol Heart Circ Physiol 2016, 310(10):H1360-1370; Goswami I, et al. Biophys J 2018, 114(12):2951-2964). Briefly, the parent type HEK293 and the mutant HEK293ΔNDUFS2 grown for eight days in 225 cm^2 flasks for 75-80% confluence were harvested by treatment with trypsin-EDTA, centrifuged at 300×g for 3 min, and resuspended in assay buffer Z (105 mM 2-(N-Morpholino)ethanesulfonic acid potassium salt, 30 mM KCl, 10 mM KH2PO4, 5 mM MgCl2-6H2O, 0.5 mg/mL bovine serum albumin, 20 mM creatine, 1 mM EGTA [pH 7.1] in dH2O). Approximately one million cells in 2 ml volumes were then introduced into the Oroboros O2K respiration chamber, which is equipped with calibrated oxygen measuring polarographic sensors. The oxygen signals were allowed to stabilize before closing the chamber to the outside air while chamber temperature was maintained at 37° C. Subsequently, the OCR was recorded after injection with none (basal), 2 mM of malate plus 10 mM glutamate (G/M), 5 mM of adenosine diphosphate (ADP), and 1.0 μM protonophore Carbonyl cyanide 4-(trifluoromethoxy)phenylhydrazone (FCCP).
Cell growth and metabolism. To measure the cell proliferation of parent HEK293 and mutant HEK293ΔNDUFS2, aliquots of 50,000 cells were introduced into 75 cm^2 flasks each carrying 25 ml growth media and cell numbers were quantified in triplicates after 4 and 6 days of incubation. Extracellular Acidification Rate (ECAR) was determined with an Agilent Seahorse XFe96 analyzer (Ryall J G. Methods Mol Biol 2017, 1556:245-253). Cellular ATP pool and cell-membrane porousness were measured using Mitochondrial ToxGlo Assay (Promega Corporation, Madison, Wis.). Oxygen consumption of saponin-permeabilized cells (Hahn D, et al. Am J Physiol Cell Physiol 2019, 317(4):C665-C673) was measured by Oroboros O2k respirometry (Alleman R J, et al. Am J Physiol Heart Circ Physiol 2016, 310(10):H1360-1370; Goswami I, et al. Biophys J 2018, 114(12):2951-2964).
(§1) Restoring (rescuing) the impaired growth and respiration the mutant. Effectiveness of the potential Complex I therapeutic idebenone in restoring the ATP synthesis defects of the mutant HEK293ΔNDUFS2 was evaluated. In this procedure, mutant cells were cultured in media supplemented with 1 μM of idebenone in 96-well plates at 2,000 cells/well. Fresh media (with or without the therapeutic) were added on days 0, 3 and 5. Cellular ATP pool was assessed on day 6 of incubation by Mitochondrial ToxGlo Assay. Mutant cells were also cultured in 6-well plates at 2000 cells/well in medium supplemented 0.5, 1, 5, or 10 μM of idebenone. Fresh media containing the drug was added on days 3, 6 and 9, and the cell counts in wells of triplicates was determined following 10 days incubation. Efficacy of idebenone in improving respiration of permeabilized mutant cells was measured by O2k respirometry as described above with the following modification: subsequent to glutamate+malate injection, idebenone was injected into chambers at 1 μM final concentration. The control groups received DMSO.

[2] = test system: mutant HEK293ΔNDUFS2; test: Cell growth of mutant cultures treated for 10 days (cell counts)
Experimental: as §1

[3] = test system: mutant HEK293ΔNDUFS2; test: ATP synthesis of mutant cells grown with therapeutics, Mitochondrial ToxGlo Assay; settings: for amount of ATP compared to mutant cells treated with DMSO: day 6, luminescence normalized to DMSO control; for restoration of ATP synthesis defects of the mutant: concentration not given
Experimental: (§2) ATP synthesis and cell-membrane integrity of strains. Potential mitochondrial dysfunction of strains was assessed by using the Mitochondrial ToxGlo Assay (Promega Corporation, Madison, Wis.), according to the procedure described by the manufacturer. This assay is based on the measurements of biomarkers associated with changes in cell membrane integrity and cellular ATP levels. Briefly, the parent and mutant cells grown in flasks were harvested by trypsinization and resuspended in fresh medium. Approximately 10,000 cells/well were added to a 96-well plate and incubated overnight. A working stock of antimycin A, which is a mitochondrial toxin (complex III inhibitor) was prepared at a concentration of 150 μM in a glucose-free DMEM medium (Sigma-Aldrich) supplemented with 10 mM galactose (Sigma-Aldrich). Serial dilutions of the mitochondrial toxin were prepared in a separate 96-well plate (in galactose containing medium). Overnight grown cells were washed with glucose-free galactose containing medium, and fresh (galactose containing medium) was added into wells at 50 μl/well. Fifty μl volumes of the serial dilutions of toxin were transferred from the stock plate to the wells in cell culture plate. The wells carrying the vehicle controls received the medium with no toxin. The plate was incubated at 37° C. for 90 min. Twenty μl volumes of 5× Cytotoxicity Reagent were added to each well, the plate was incubated at 37° C. for further 30 min, and the fluorescence was measured at 475 nmEX/500-550 nmEM, by using a Glomax Discover plate reader (Promega Corporation). The assay plate was equilibrated to room temperature, 100 μl ATP Detection Reagent was added to each well, and luminescence was measured by using the same plate reader.
Restoring (rescuing) the altered/lost phenotypes of the mutant with the use of potential complex I therapeutics. Effectiveness of the potential complex I therapeutics in restoring the metabolic defects of the mutant HEK293ΔNDUFS2 was evaluated. For this purpose, the mutant cells were treated with the therapeutic idebenone or its analog SBT-220 and change in ATP synthesis was examined. In this procedure, the mutant cells were suspended in culture media supplemented with 0, 1, or 10 μM of idebenone, conjugate SBT-220, conjugate SBT-222, or elamipretide, and plated in 96 well plates at 2,000 cells/well. Cells suspended in DMSO served as controls. Fresh media (with or without therapeutics) were added on days 0, 3 and 5. Cellular ATP synthesis was assessed on day 6 of incubation by using the Mitochondrial ToxGlo Assay, as described above. The responses of ATP synthesis in the treatment groups were normalized to that of the control group.
as §1

[4] = test system: parent HEK293; test: ATP synthesis in presence of respiratory inhibitor, Mitochondrial ToxGlo Assay; settings: Antimycin A added to reaction media, 90 min
Experimental: as §2

[5] = test system: mutant HEK293ΔNDUFS2; test: as above; settings: Antimycin A added to reaction media
Experimental: as §2

[6] = test system: parent HEK293; test: Cell-membrane porousness in presence of respiratory inhibitor, Mitochondrial ToxGlo Assay; settings: Antimycin A added to reaction medium
Experimental: as §2

[7] = test system: mutant HEK293ΔNDUFS2; test: as above
Experimental: as §2

[8] = 1 μM final concentration, vs DMSO

Compound | Complex I respiration ([1]; 1 μM final concentration injected after glutamate+malate, vs DMSO) | Complex II respiration [1, 8] | OXPHOS capacity [1, 8] | maximal respiration [1, 8] | oxygen consumption all along the ETC ([1]; idebenone treatment vs DMSO) | more cells recovered compared to the DMSO control ([2]; 0.5 μM, 10 days) [%] | cell proliferation ([2]; 0.5 μM, long-term treatment) | growth of the mutant ([2]; 1 μM, 10 days) | growth of the mutant ([2]; 5 μM, 10 days) | effect on mutant cells in growth test ([2]; 10 μM, 10 days) | amount of ATP compared to mutant cells treated with DMSO ([3]; 1 μM) [folds] | restoration of ATP synthesis / ATP pool of the mutant ([3]; 1 μM, long-term treatment (six days)) | improvement of ATP synthesis defects of the mutant ([3]; 10 μM) | restoration of ATP synthesis defects of the mutant [3] | ATP synthesis ability [4] | decline of ATP synthesis in the mutant compared to the parent [5] | ATP synthesis ability ([5]; 90 min) | membrane porousness [6] | membrane porousness ([7]; Antimycin A added to reaction medium) | cell membrane porousness of the mutant relative to the parent ([7]; as a result of antimycin A treatment)
COC1=C(OC)C(=O)C(CCCCCCCCCCO)=C(C)C1=O [idebenone] | improved significantly | improved significantly | improved significantly | improved significantly | improved oxygen consumption all along the ETC | 32.1 | enhanced cell proliferation | did not improve growth | did not improve growth | caused cell death | 2.4 | restored the ATP synthesis of the mutant to some extent; also recorded: significantly greater amount of ATP; also recorded: improved ATP pool | failed to improve | partially restored |  |  |  |  |  | 
Antimycin A |  |  |  |  |  |  |  |  |  |  |  |  |  |  | declined drastically | up to 2.2 folds | declined drastically | more porous | more porous | up to 4.5 folds
elamipretide |  |  |  |  |  |  |  |  |  |  | 2.1 |  |  | partially restored |  |  |  |  |  | 
